Measured values from US20240350488A1, “METHODS OF TREATING SWI/SNF DEREGULATED CANCERS” (Fred Hutchinson Cancer Center, priority 2023, published 2024).

Key:
EZH2 = target: T1, EZH2 (Mus musculus, UniProt Q61188); assay: H3K27me3 on the Rasgrp1 promoter in Arid1a^fl/fl organoids treated with EZH2 inhibitor; type: cell-based; details: Arid1a^fl/fl organoids treated with GSK126
T1 construct: endogenous in cells; host or cells: Arid1a^fl/fl mouse urothelial organoids
Procedure: CUT&Tag was performed following the published protocol, with some modifications. Briefly, cells were harvested and prepared into homogenous suspension in PBS, aliquoted with 10% DMSO and slow-frozen to −80° C. in isopropanol freezing chambers. CUT&Tag was performed with native nuclei. Cells were thawed at 37° C. for 1 minute, washed twice with PBS and centrifugation at 600×g for 3 minutes, and resuspended into ice-cold NE1 buffer (20 mM K-HEPES pH 7.9, 10 mM KCl, […], 20% Glycerol, 0.5 mM spermidine, and EDTA-free protease inhibitor). Cells were kept on ice for 10 minutes, centrifuged at 1400×g for 3 minutes using a swinging-bucket rotor, pellets were resuspended in Wash buffer (20 mM Na-HEPES pH 7.5, 150 mM NaCl, 0.5 mM spermidine, and EDTA-free protease inhibitor), nuclei were counted using Vi-CELL© Cell Viability Analyzer (Beckman Coulter) and aliquoted into 0.6 mL low-binding flip-cap tubes for CUT&Tag experiments.
500,000 nuclei were used for each CUT&Tag experiment targeting a histone posttranslational modification, while 200,000 nuclei were used for ARID1A. Bio-Mag®Plus Concanavalin A coated magnetic beads (Bangs Laboratories) were equilibrated with binding buffer (20 mM K-HEPES pH7.9, 10 mM KCl, and 1 mM each CaCl2 and MnCl2). To each sample, 10 μL of activated beads were added and held at room temperature for 5 minutes with occasional gentle mixing. […]

eEF2 phosphorylation = assay: Immunoblot of phospho-eEF2 and total eEF2 in Arid1a^fl/fl organoids +/- GSK126; type: cell-based, mouse
Procedure: Cell lysates were prepared using RIPA buffer (Fisher) containing phosphatase inhibitor (Sigma) and protease inhibitor cocktail (Sigma). The lysates were incubated on ice for 30 minutes with periodic mixing by vortex and centrifuged at 13,000×g at 4° C. for 10 minutes. The supernatants were subjected to SDS-PAGE and transferred to a PDVF membrane (Bio-Rad). Membranes were blocked with 5% milk for 1 hour at room temperature. Primary antibodies were diluted in 5% milk and incubated overnight at 4° C. Blots were incubated with horse radish peroxidase- (HRP-) conjugated secondary antibodies (goat anti-rabbit IgG (Fisher) or goat anti-mouse IgG (Fisher)) in 5% milk for 1 hour at room temperature. West Pico (Fisher) was used to detect immunoreactive bands on the blot using the ChemiDoc Touch Imaging System (Bio-Rad). […]

Rasgrp1 mRNA = assay: QPCR of Rasgrp1 in Arid1a^fl/fl organoids after GSK126; type: cell-based, mouse; details: Arid1a^fl/fl cells; GSK126 12.5 μM
RASGRP1 protein = assay: RASGRP1 IF in Arid1a^fl/fl organoids after GSK126; type: cell-based, mouse; details: Arid1a^fl/fl cells treated with GSK126
Procedure: Organoids were fixed using 4% PFA for 2 hours at room temperature on a shaker followed by a 30-minute incubation on ice to achieve complete removal of EHS. Intact organoids were collected as a pellet after centrifugation at 1400 rpm for 5 min and washed with ddH2O. The pellet was further washed with 0.2% BSA and organoids were mixed with HistoGel™ (Epredia). The organoid and HistoGel™ suspension was centrifuged at 1400 rpm for 5 minutes and kept on ice for 30 minutes. The solidified HistoGel™ structure was stored at 4° C. until ready for processing and paraffin embedding. Organoid sections ([…]) were deparaffinized in CitriSolv™ (Fisher, 4355121) for 10 minutes and rehydrated using 100% (2×), 90% (2×) and 70% (2×) ethanol for 5 minutes each. Antigen retrieval was performed by preheating in sodium citrate buffer (pH 6.0) solution for 10 minutes at 121° C. in a pressure cooker. Organoid sections were blocked in 1% BSA solution for 1 hour followed by overnight incubation in primary antibody (anti-RASGRP1: Fisher) at 4° C. in a humidified chamber. Secondary antibody (Alexa Fluor® 594: Invitrogen) incubation was performed for 1 hour at room temperature. All slides were mounted using ProLong™ gold mounting media with DAPI (Fisher Scientific, P36935). […]

eEF2K = target: T2, eEF2K (Mus musculus, UniProt O08796); assay: IHC of phospho-eEF2 (T56) in Arid1a^fl/fl mice after eEF2K inhibitor treatment; type: in vivo; details: A-484954 10 mg/kg IP daily for 15 days
T2 construct: from tissue; host or cells: bladder urothelium of Arid1a^fl/fl mice dosed in vivo
T2 sequence (O08796 1-724): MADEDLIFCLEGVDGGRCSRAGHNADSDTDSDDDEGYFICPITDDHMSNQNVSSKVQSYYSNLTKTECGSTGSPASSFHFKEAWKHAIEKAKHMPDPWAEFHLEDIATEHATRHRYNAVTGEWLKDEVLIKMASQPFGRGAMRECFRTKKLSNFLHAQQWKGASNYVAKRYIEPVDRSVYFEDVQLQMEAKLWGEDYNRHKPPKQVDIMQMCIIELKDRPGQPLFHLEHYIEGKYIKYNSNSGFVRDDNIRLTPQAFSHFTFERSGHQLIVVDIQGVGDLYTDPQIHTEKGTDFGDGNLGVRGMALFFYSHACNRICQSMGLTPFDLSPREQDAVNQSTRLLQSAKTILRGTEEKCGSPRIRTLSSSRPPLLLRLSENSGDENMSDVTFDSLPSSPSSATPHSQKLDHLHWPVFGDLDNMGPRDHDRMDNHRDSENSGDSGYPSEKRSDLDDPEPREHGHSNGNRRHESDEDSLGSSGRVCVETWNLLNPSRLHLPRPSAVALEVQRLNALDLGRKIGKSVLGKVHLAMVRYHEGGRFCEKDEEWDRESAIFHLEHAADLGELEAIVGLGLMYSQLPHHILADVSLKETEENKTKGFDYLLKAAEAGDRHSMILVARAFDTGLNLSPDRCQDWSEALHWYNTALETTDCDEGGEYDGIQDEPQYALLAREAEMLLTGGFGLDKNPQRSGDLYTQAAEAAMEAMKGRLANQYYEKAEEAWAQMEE
Procedure: (§1) Bladder samples were collected, fixed in 4% paraformaldehyde (PFA), dehydrated with ethanol, and embedded in paraffin wax. Paraffin blocks were sectioned (5 μm) using a rotary microtome and hematoxylin and eosin (H&E) stained. Immunohistochemistry (IHC) staining was performed after rehydrating the tissue. In brief, antigen retrieval was performed by preheating in sodium citrate buffer (pH 6.0 or pH 9) solution for 7-30 minutes at 95° C.-125° C. in a pressure cooker. Hydrogen peroxidase (Vector Laboratories) treatment was done for 5 minutes to quench endogenous peroxides. Tissue was blocked in 1% BSA for 1 hour. Primary antibodies were applied and incubated at room temperature for 1 hour in a humidified chamber followed by secondary antibody (EnVision™ system HRP-labeled polymer, Dako, K4003). Color development was achieved by applying 3,3′-diaminobenzidine (DAB) solution (Agilent Technology) for 2 to 5 minutes, depending on the primary antibody. The sections were counterstained with hematoxylin (Agilent Technology), washed, and cover-slipped using aqueous-based mounting medium (Agilent Technology). All IHC slides were scanned using Aperio ScanScope AT Turbo (Leica Biosystems). […]

[1] = system: Arid1a^fl/fl mouse urothelium; assay: γH2AX and CC3 staining of Arid1a^fl/fl urothelium, A-484954 pretreatment before 9-day BBN; type: in vivo; details: Arid1a^fl/fl mice pretreated with A-484954 before a 9-day course of BBN
Procedure: as §1

[2] = system: protein synthesis in Arid1a^fl/fl bladders; assay: In vivo puromycin incorporation assay in Arid1a^fl/fl mice after eEF2K inhibitor treatment; parameters: species or system mouse; details: A-484954 10 mg/kg IP daily for 15 days
Procedure: Immunofluorescent (IF) staining was performed in the following manner. Antigen retrieval was conducted by preheating in sodium citrate buffer (pH 6.0) for 30 minutes at 95° C. in a pressure cooker. Tissue was blocked in 1% BSA solution for 2 hours or in M.O.M® blocking reagent (Vector Laboratories) for 1 hour at room temperature, followed by blocking in 1% BSA solution for 2 hours. Primary antibodies were applied overnight at 4° C. in a humidified chamber, and secondary antibodies (Alexa Fluor® 594; Alexa Fluor® 488; or Alexa Fluor® 647 (Invitrogen)) were applied for 1 hour at room temperature. All IF slides were mounted using ProLong™ gold mounting media with DAPI (Fisher Scientific, P36935). IF slides were scanned using an Aperio Scanscope FL (Leica Biosystems). The following primary antibodies were used for IF study: anti-Cytokeratin 5 (Biolegend Inc), anti-puromycin (EMD Millipore), anti-p-eEF2K (S366) (Cell Signaling Technology), anti-ARID1A (Sigma), or anti-Cytokeratin 5 (Abcam). Image analysis was done using semiautomated image analysis software (HALO, Indica Labs).
For the in vivo puromycin incorporation assay, mice were injected i.p. with 200 μL of 2.5 mM puromycin (Fisher) and euthanized after 1 hour. For in vitro puromycin incorporation assay, cells were treated with 1 μM puromycin for 30 minutes at 37° C. […]

T1 sequence (Q61188 whole entry): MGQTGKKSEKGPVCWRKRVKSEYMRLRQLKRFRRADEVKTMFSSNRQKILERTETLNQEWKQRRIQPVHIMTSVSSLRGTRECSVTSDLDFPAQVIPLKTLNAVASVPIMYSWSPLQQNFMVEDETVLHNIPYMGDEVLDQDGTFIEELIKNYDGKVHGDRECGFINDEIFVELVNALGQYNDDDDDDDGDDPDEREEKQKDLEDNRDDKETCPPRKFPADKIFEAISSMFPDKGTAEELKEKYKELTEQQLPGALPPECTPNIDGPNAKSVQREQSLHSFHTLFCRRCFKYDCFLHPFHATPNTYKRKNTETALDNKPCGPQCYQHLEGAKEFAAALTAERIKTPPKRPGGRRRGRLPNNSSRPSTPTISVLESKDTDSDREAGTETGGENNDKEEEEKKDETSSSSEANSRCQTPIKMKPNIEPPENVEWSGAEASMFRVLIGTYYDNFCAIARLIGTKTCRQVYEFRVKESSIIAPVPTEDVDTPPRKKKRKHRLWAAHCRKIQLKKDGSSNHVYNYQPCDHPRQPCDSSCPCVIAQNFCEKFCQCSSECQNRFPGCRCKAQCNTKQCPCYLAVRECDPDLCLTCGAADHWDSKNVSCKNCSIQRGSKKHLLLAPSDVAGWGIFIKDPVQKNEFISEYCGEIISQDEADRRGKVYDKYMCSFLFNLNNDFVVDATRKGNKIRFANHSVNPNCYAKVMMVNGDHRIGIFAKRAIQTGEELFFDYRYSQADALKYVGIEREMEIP
T1 sequence (Q921E6 whole entry partner): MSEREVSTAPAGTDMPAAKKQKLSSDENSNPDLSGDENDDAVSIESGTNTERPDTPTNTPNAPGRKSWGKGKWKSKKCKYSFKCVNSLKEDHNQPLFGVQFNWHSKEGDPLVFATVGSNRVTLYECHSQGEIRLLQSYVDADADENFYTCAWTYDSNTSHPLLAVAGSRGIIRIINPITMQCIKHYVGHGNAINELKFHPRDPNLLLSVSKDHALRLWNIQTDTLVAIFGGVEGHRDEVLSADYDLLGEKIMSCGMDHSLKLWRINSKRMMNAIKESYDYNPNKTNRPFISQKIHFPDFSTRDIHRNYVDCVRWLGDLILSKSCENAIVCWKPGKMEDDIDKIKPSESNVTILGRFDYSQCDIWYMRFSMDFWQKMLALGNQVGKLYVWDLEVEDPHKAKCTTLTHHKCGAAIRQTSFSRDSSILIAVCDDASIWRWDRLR
T1 sequence (Q80U70 whole entry partner): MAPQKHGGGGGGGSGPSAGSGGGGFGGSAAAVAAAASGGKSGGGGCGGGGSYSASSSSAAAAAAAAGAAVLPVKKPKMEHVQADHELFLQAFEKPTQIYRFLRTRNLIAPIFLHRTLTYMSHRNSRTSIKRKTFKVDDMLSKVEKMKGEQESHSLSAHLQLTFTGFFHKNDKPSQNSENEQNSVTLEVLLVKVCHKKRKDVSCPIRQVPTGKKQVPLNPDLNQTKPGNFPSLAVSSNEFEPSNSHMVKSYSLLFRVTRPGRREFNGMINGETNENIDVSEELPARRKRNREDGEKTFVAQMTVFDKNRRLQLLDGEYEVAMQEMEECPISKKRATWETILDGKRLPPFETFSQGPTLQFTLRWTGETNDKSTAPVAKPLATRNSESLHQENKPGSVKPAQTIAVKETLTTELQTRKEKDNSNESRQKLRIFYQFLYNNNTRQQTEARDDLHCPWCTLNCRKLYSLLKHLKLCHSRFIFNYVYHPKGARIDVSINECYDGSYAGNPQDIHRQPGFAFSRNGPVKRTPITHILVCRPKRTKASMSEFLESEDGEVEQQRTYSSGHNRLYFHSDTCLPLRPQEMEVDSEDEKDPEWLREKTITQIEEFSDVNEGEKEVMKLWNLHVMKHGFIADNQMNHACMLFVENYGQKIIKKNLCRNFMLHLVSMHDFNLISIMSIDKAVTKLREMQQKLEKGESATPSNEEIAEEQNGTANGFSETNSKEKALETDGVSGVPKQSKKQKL
T1 sequence (Q60972 whole entry partner): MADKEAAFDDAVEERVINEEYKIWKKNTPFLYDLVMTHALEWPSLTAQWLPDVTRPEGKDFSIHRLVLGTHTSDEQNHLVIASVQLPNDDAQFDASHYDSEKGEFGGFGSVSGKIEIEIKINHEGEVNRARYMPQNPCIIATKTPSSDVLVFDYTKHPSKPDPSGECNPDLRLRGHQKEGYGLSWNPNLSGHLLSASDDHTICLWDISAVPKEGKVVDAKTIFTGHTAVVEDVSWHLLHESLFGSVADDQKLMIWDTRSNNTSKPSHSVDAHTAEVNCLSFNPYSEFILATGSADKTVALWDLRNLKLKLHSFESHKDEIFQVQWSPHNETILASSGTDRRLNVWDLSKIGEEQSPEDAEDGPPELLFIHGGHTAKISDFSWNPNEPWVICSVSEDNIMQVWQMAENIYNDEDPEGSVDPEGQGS

Compound: CC[C@H](C)n1cc(C)c2c(C(=O)NCc3c(C)cc(C)[nH]c3=O)cc(-c3ccc(N4CCNCC4)nc3)cc21 [GSK126]
- H3K27me3 on the Rasgrp1 promoter (EZH2): decreased H3K27me3
- eEF2 phosphorylation (eEF2 phosphorylation): decrease in eEF2 phosphorylation
- Rasgrp1 mRNA levels (Rasgrp1 mRNA): restored
- RASGRP1 protein levels (RASGRP1 protein): restored

Compound: CCn1c(=O)c2cc(C(N)=O)c(N)nc2n(C2CC2)c1=O [A-484954]
- eEF2 phosphorylation (T56) (eEF2K): attenuation of eEF2 phosphorylation
- DNA damage (γH2AX) [1]: markedly decreased
- apoptosis (CC3) [1]: markedly decreased
- protein synthesis (puromycin incorporation) [2]: restoration of protein synthesis
